Values quoted from earlier work in patent publication US20170313932A1, “SYNTHETIC ACID COMPOSITIONS ALTERNATIVES TO CONVENTIONAL ACIDS IN THE OIL AND GAS INDUSTRY” (FLUID ENERGY GROUP LTD., priority 2014, published 2017).

System: Life and Health

Cl [Hydrogen chloride gas, Hydrogen chloride]
Level Immediately Dangerous to Life and Health (IDHL): above 50 PPM | Level at which death can occur (gas exposure, death in 2-3 minutes): 1300-2000 parts per million (PPM)
